In patent publication US10834886B2, “Switchgrass cultivar PanIR” (priority 2017, dated 2020):

Assays:
[1] = tested on: Cycle1 switchgrass seedlings; assay: Herbicide screening of seedlings, First: Second Generation Selection; type: in vivo
Procedure: Subsequent testing of the first generation seed/seedlings was conducted in the same manner as the initial herbicide screenings. The planting of the trays consisted of 8 rows of the first generation, one row Alamo, and one row indiangrass (tolerant control).
Seedlings of Cycle1 (315,360) were screened for tolerance to 14 oz/A (2×) rate of Plateau®. Ninety-seven (97) survived the initial imazapic application. Sixty-eight (68) succumbed to a second (8 oz/A) application leaving twenty-nine (29) tolerant individuals which were planted in an isolated crossing block at Longview, Miss. (33.404999, −88.938283) as Cycle2.

[2] = tested on: Alamo switchgrass seedlings (Cycle0); assay: Herbicide screening of seedlings, Zero: First Generation Selection; type: in vivo, Panicum virgatum
Procedure: Selection for herbicide resistance was conducted using methods similar to the study performed by Bahler and others (1983). Heavy duty plastic and metal trays measuring 51.5 cm×36.5 cm were used to hold the germinating seedlings during growth and also allowed for easy maintenance and efficient application of herbicide. The testing was conducted in a greenhouse that maintained a nightly temperature of 20° C. and a daily temperature of 30° C. Before the autumnal equinox, day length was not supplemented for the experiment. After the equinox, light was extended to 16 hrs. Day length is a concern due to switchgrass' photoperiodic nature. Eight trays represent a replicate, which were repeated over time. Each tray was filled with autoclaved field soil approximately ¾ full. A 2.5 cm×30.5 cm piece of PVC pipe was used to form ten micro-furrows spaced at 5 cm within each tray. Nine of the ten rows were planted with approximately […] Alamo switchgrass seed (Sharp Brothers, Healy, Kans.). The remaining, randomly selected row was planted with 250 indiangrass seed (MSU 3rd cycle of selection for precocious germination). One hundred (100) seed were evenly dispersed within each furrow of the flat; flats were top-dressed with 0.63 cm of autoclaved field soil. The trays were watered on a daily basis. Emergence of the seedlings usually took place 6-8 days after planting. Once the seedlings broke the soil surface, they were allowed to grow to the three leaf stage (approximately 14 days). A calibrated spray chamber was used to apply the herbicide to the seedlings in the trays. For imazapic, the recommended rate is 140 g a.i./ha on mixed grassland, applied with less than 93.54 liters of water per hectare, sprayed at a constant pressure of 40 psi. A spray adjuvant (nonionic surfactant) was added to the formulation. In order to achieve the correct amounts for the spray mixture, the following calculations were made: (8 fl.oz./1 ac.)×(1 ac./15 gal.sol.)×(1 gal./128 fl.oz.sol.)×(20 f.oz.sol./1 bottle)×(3785 ml/128 fl.oz.)=2.46 ml/1 bottle H2O (3-1) The formulation requires 2.46 mls of Plateau®, 1.5 mls of surfactant, and 556 mls of water to fill the spray bottle for the chamber. The trays were placed two at a time in the chamber and sprayed at a fixed speed ([…]) to ensure proper dosage. A dose response curve was conducted on the sixth trial to determine the rate of Plateau® that would kill a majority of the switchgrass seedlings (Table 1).
The upper limit was 245 g a.i./ha, which exceeded the labeled rate for big bluestem and indiangrass. […] Eight trays represented the curve and were assessed on the amount of discoloration relative to the unsprayed tray. […]

[3] = tested on: Indiangrass (resistant check); assay: Field emergence: seedlings surviving imazapic application; type: in vivo, Sorghastrum nutans; details: 14 oz/A
Procedure: (§1) Plants were seeded in July and August of 2014 and during May of 2015. Data presented in Table 4 indicates 2014 testing at three locations (Brooksville, Newton, and Starkville). At all locations, PanIR seedling numbers exceeded all other generations of selection as well as the resistant check (indiangrass).

[4] = tested on: Alamo (Cycle0) lowland switchgrass; assay: Agar/growth chamber germination on water agar + imazapic; type: in vivo, Panicum virgatum; details: controlled conditions
Description: (§2) Since field emergence relies on soil tilth, rainfall, planter depth, and a host of other conditions, the inventors opted for a more uniform method of testing resistance: imazapic-dosed water agar. Data from germination under controlled conditions indicated significant progress for resistance to imazapic (Table 3) over three cycles of selection.

[5] = tested on: PanIR Cycle3 switchgrass; assay: as above; type: in vivo, Panicum virgatum; details: 2.3 times higher rate, controlled conditions
Description: as §2

[6] = tested on: Rapid Germ Switchgrass; assay: Field emergence: seedlings surviving imazapic application; type: in vivo, Panicum virgatum; details: 14 oz/A
Procedure: as §1

[7] = tested on: Alamo (Cycle 0) switchgrass; assay: as above; type: in vivo, Panicum virgatum; details: 14 oz/A
Procedure: as §1

[8] = tested on: PanIR (Cycle 3) switchgrass; assay: as above; type: in vivo, Panicum virgatum; details: 14 oz/A
Procedure: as §1

[9] = tested on: Cycle 2 switchgrass; assay: as above; type: in vivo, Panicum virgatum; details: 14 oz/A
Procedure: as §1

[10] = tested on: Cycle 1 switchgrass; assay: as above; type: in vivo, Panicum virgatum; details: 14 oz/A
Procedure: as §1

[11] = tested on: switchgrass cultivars, Alamo and Kanlow; details: pre-plant application; cited from earlier work
[12] = tested on: switchgrass stands; details: in vivo; cited from earlier work

Cc1cnc(C2=NC(C)(C(C)C)C(=O)N2)c(C(=O)O)c1 (stereo not shown) [imazapic, 5-methyl-2-[4-methyl-5-oxo-4-(propan-2-yl)-4,5-dihydro-1H-imidazol-2-yl]pyridine-3-carboxylic acid]
selection intensity ([1]; Cycle1: 29 seedlings selected out of 36,441 seedlings): 0.0795% | mortality rate ([1]; seedlings produced from the first cycle polycross of selection): greater than 75% | selection intensity ([2]; 364,650 seedlings, 63 survivors, 245 g a.i./ha): 0.0172% | selection intensity ([2]; Cycle0 (Alamo): 63 individuals selected out of 306,000 seedlings): 0.0205% | individuals surviving the initial screening ([2]; approximately 364,650 Alamo individuals screened, 8 oz/A): 78 individuals | individuals remaining in base population after second screening ([2]; the 78 survivors exposed to one-time application of 14 oz/A): 63 individuals | Number of seedlings surviving, 42 days after spraying ([3]; Brooksville 2014): 16.25^†B* seedlings emerged per 30 cm of row | Number of seedlings surviving, 42 days after spraying ([3]; Brooksville 2015): 24.50^†B* seedlings emerged per 30 cm of row | Number of seedlings surviving, 42 days after spraying ([3]; Newton 2014): 14.50 B seedlings emerged per 30 cm of row | Number of seedlings surviving, 42 days after spraying ([3]; Starkville 2014): 19.75 B seedlings emerged per 30 cm of row | Number of seedlings surviving, 42 days after spraying ([3]; Starkville 2015): 13.33 B seedlings emerged per 30 cm of row | resistance as percentage of the population [4]: approximately 3% | resistance as percentage of the population [5]: about 93.6% | Number of seedlings surviving, 42 days after spraying ([6]; Brooksville 2014): 2.75 B seedlings emerged per 30 cm of row | Number of seedlings surviving, 42 days after spraying ([6]; Brooksville 2015): 0.00 C seedlings emerged per 30 cm of row | Number of seedlings surviving, 42 days after spraying ([6]; Newton 2014): 2.00 B seedlings emerged per 30 cm of row | Number of seedlings surviving, 42 days after spraying ([6]; Starkville 2014): 2.00 C seedlings emerged per 30 cm of row | Number of seedlings surviving, 42 days after spraying ([6]; Starkville 2015): 1.00 B seedlings emerged per 30 cm of row | Number of seedlings surviving, 42 days after spraying ([7]; Brooksville 2014): 2.00 B seedlings emerged per 30 cm of row | Number of seedlings surviving, 42 days after spraying ([7]; Brooksville 2015): 5.75 BC seedlings emerged per 30 cm of row | Number of seedlings surviving, 42 days after spraying ([7]; Newton 2014): 6.50 B seedlings emerged per 30 cm of row | Number of seedlings surviving, 42 days after spraying ([7]; Starkville 2014): 8.25 BC seedlings emerged per 30 cm of row | Number of seedlings surviving, 42 days after spraying ([7]; Starkville 2015): 1.00 B seedlings emerged per 30 cm of row | Number of seedlings surviving, 42 days after spraying ([8]; Brooksville 2014): 53.00 A seedlings emerged per 30 cm of row | Number of seedlings surviving, 42 days after spraying ([8]; Brooksville 2015): 115.75 A seedlings emerged per 30 cm of row | Number of seedlings surviving, 42 days after spraying ([8]; Newton 2014): 43.00 A seedlings emerged per 30 cm of row | Number of seedlings surviving, 42 days after spraying ([8]; Starkville 2014): 49.50 A seedlings emerged per 30 cm of row | Number of seedlings surviving, 42 days after spraying ([8]; Starkville 2015): 16.00 A seedlings emerged per 30 cm of row | Number of seedlings surviving, 42 days after spraying ([9]; Brooksville 2014): 14.25 B seedlings emerged per 30 cm of row | Number of seedlings surviving, 42 days after spraying ([9]; Brooksville 2015): 18.75 BC seedlings emerged per 30 cm of row | Number of seedlings surviving, 42 days after spraying ([9]; Newton 2014): 13.00 B seedlings emerged per 30 cm of row | Number of seedlings surviving, 42 days after spraying ([9]; Starkville 2014): 13.75 BC seedlings emerged per 30 cm of row | Number of seedlings surviving, 42 days after spraying ([9]; Starkville 2015): 5.67 B seedlings emerged per 30 cm of row | Number of seedlings surviving, 42 days after spraying ([10]; Brooksville 2014): 8.25 B seedlings emerged per 30 cm of row | Number of seedlings surviving, 42 days after spraying ([10]; Brooksville 2015): 19.25 BC seedlings emerged per 30 cm of row | Number of seedlings surviving, 42 days after spraying ([10]; Newton 2014): 10.25 B seedlings emerged per 30 cm of row | Number of seedlings surviving, 42 days after spraying ([10]; Starkville 2014): 3.25 C seedlings emerged per 30 cm of row | Number of seedlings surviving, 42 days after spraying ([10]; Starkville 2015): 2.00 B seedlings emerged per 30 cm of row

CCC(CC)Nc1c([N+](=O)[O-])cc(C)c(C)c1[N+](=O)[O-] [Pendimethalin, pendimethalin]
mortality of stands [11]: up to 50%

CCNc1nc(Cl)nc(NC(C)C)n1 [atrazine]
effect on switchgrass stands [12]: no deleterious effects
